Data on ten substances can be found in patent US8030452B2, “IFBM'S to promote the specific attachment of target analytes to the surface of orthopedic implants” (priority 2004, dated 2011).

The target in one assay is BMP on collagen sponge (Homo sapiens, UniProt P12643). As to the method: To each well, a 2/16″ diameter collagen sponge (Medtronic) was added. The collagen and peptide solutions were allowed to incubate for 1.5 hours at room temperature. Sponges were then rinsed three times with 200 μL Medtronic buffer at 2200 rpm for 1 minute. To each sponge, a primary antibody directed at BMP (diluted 1:1000; R&D Systems #MAB3552) was added for 1 hour at room temperature. A secondary antibody conjugated to alkaline phosphatase (1:5000) was then incubated in the system for 0.5 hour at room temperature.

The next assay has as its target T1, BMP-2 (Homo sapiens, UniProt P12643).
T1 construct: purchased Medtronic
T1 sequence (P12643 283-396): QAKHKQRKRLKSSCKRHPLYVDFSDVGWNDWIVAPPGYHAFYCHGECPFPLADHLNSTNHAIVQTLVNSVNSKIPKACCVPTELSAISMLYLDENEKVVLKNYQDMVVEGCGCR
The assay is described as follows: Binding of biotinylated peptides to BMP-2 (FIG. 12). The settings on record: biotinylated peptide. As to the method:
Briefly, peptide stock solutions were made by dissolving the powder in 100% DMSO to make a 10 mM solution of peptide, water was then added for a final stock concentration of peptide of 1 mM in 10% DMSO. Serial dilutions of the peptide were made in PBS-T. A dilution series of BMP-2 with concentrations ranging from 100 nM to 0.1 nM was immobilized onto the wells of microtiter plates (Immulon-4® HBX from Dynex Technologies, Chantilly, Va.) and blocked with 1% BSA. […] The […] were washed 3 times with PBS-T. Streptavidin-alkaline phosphatase (SA-AP) from USB (United States Biochemical, catalog #11687) was added (1:1000 in PBS-T) and incubated 1 hour at room temperature with shaking. The plates were washed 3 times with PBS-T and the amount of peptide:SA-AP was determined by adding PNPP (Sigma-Aldrich, Inc., SigmaFast tablets, catalog #N1891) and allowing the color to develop for about 10 minutes.
To confirm these BMP binding results, the peptides were also tested in an alternate assay format in which the peptide and BMP2 were allowed to bind in solution and then assayed. Briefly, the peptides were synthesized with a biotin group attached to the ε amino group of a lysine residue at the C-terminus of the peptide. […] The plates were washed with TBS-Tween™ 20 and the antibody binding was detected using the chromogenic AP substrate pNPP. […]

Another assay concerns the target T2, BMP-7 (Homo sapiens, UniProt P18075).
T2 sequence (P18075 293-431): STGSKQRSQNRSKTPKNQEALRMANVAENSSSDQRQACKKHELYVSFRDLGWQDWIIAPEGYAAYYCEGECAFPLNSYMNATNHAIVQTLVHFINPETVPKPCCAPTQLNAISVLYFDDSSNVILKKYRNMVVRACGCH
The assay is described as follows: Binding of biotinylated peptides to BMP-7 (FIG. 12). Conditions: biotinylated peptide.

For a further assay, the target named is T3, BMP-4 (Homo sapiens, UniProt P12644).
T3 sequence (P12644 293-408): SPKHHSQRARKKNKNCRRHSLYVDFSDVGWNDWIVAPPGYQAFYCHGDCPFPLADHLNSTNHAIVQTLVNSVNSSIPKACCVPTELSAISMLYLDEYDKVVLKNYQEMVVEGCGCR
The assay is described as follows: Binding of biotinylated peptides to BMP-4 (FIG. 12). The settings on record: biotinylated peptide.

The conditions of assay [1]: for binding to titanium: FIG. 3; for EC50: read-out: [peptide] ½ maximal signal (relative affinity for titanium), biotin-conjugated peptide, titanium beads, 1 hour room temperature, absorbance 405 nm. As to the method: AFF6007 and AFF6010 were prepared at 200 μM.
Beads were washed two times with PBS/Tween™ 20.

For the substance “DVNSIWMSRVIEWTYDSGSSGKSRSSDSAFSSFSALEGSVVSR-NH2 [AFF7008]”, the “BMP retained on collagen sponge” value on BMP on collagen sponge is on record as “increase the amount of BMP on the sponge when compared to no IFBM, but to a lesser extent than AFF7010”.

Regarding “DVNSIWMSRVIEWTYDSGSSGKSSDWGVVASAWDAFEALDASR-NH2 [AFF7017]”, the “BMP retained on collagen sponge” value on BMP on collagen sponge is given as “increase the amount of BMP on the sponge when compared to no IFBM, but to a lesser extent than AFF7010”.

As to “DVNSIWMSRVIEWTYDSGSSGKSSFEPLRFPLKGVPVSR-NH2 [AFF7006]”, the “amount of BMP-2 retained on collagen with increasing IFBM concentration” value (shortened to “amount … with increasing IFBM concentration”) at BMP on collagen sponge is “leads to a larger amount of BMP-2 that is retained on the collagen”.

Regarding “DVNSIWMSRVIEWTYDSGSSGKSSSVDLYFPLKGDVVSR-NH2 [AFF7010]”, at BMP on collagen sponge, the “BMP retained on collagen sponge” value is given as “retains more BMP on the sponge than the sponges without IFBM” and the “amount … with increasing IFBM concentration” value was “leads to a larger amount of BMP-2 that is retained on the collagen”.

Take SRGGEAAAGAWVSFSALESSR [compound 2007]: at BMP-2, the “binding to BMP-2” value was “bound”. In addition, at BMP-7, the “binding to BMP-7” value was “bound”. Besides, the “binding to BMP-4” value at BMP-4 is listed as “bound”.

Take SSDWGVVASAWDAFEALDASR [compound 2011]: the “binding to BMP-2” value on BMP-2 is “bound”. The “binding to BMP-7” value on BMP-7 is “bound”. In addition, the “binding to BMP-4” value at BMP-4 is given as “bound”.

In the case of “SSFEPLRFPLKGVPVSRGSSGKDVNSIWMSRVIEWTYDS-NH2 [AFF7005]”, on BMP on collagen sponge, the “amount … with increasing IFBM concentration” value is “leads to a larger amount of BMP-2 that is retained on the collagen”.

For the substance SSSDKCHKHWYCYESKYGGSGSSGK [AFF6007], in assay [1], the binding to titanium entry was “bind to titanium” and the EC50 was 350 nM.

For the substance SSSDKSHKHWYSYESKYGGSGSSGK [AFF6010], the “decrease of affinity for titanium on elimination of the cysteine residues of AFF6007” value in assay [1] (AFF6010 versus AFF6007) was “about 10 fold”. For the same substance, in assay [1], the binding to titanium result is reported as “bind to titanium” and the EC50 came to 3000 nM.

As to “SSSVDLYFPLKGDVVSRGSSGKDVNSIWMSRVIEWTYDS-NH2 [AFF7009]”, the “amount … with increasing IFBM concentration” value at BMP on collagen sponge is reported as “leads to a larger amount of BMP-2 that is retained on the collagen”.
